Data from US20240287130A1, “COMPOUND FOR ALCOHOLIC LIVER INJURY, PREPARATION METHOD, COMPOSITION, FOOD AND USE” (CHENGDU INNOHEPOREM BIOTECH CO., LTD., priority 2021, published 2024).

Assays:
[1] = test system: mouse alcoholic liver injury model; assay: Effect of product (a) on alcoholic liver injury (Example 6): six months alcohol feeding, then one month of intervention in normal liquid feed; type: in vivo, C57 mice; settings: one month intervention after six months alcohol; for proportion of fat deposition in the total liver area (oil red O staining): non-intervention group 0.68, FIG. 16; for ALT level in serum: normal diet group 12.03, non-intervention group 44.84, FIG. 14
Text: (§1) This experiment used the Lieber-DeCarli alcoholic fatty liver modeling method. Lieber-DeCarli feed was purchased from Nantong Trophic Animal Feed High-Tech Co., Ltd. The specific method is as follows: C57 mice (purchased from TROPHIC Animal Feed High-Tech Co. Ltd, China, the same below) were fed with normal solid maintenance feed, adapted to the feeding environment for at least one week, then were fed with maltodextrin diet for a week of transition, and then fed with Lieber-DeCarli feed. The alcohol concentration of Lieber-DeCarli feed was 3% in the first week, and the alcohol concentration was increased by 0.5% every week until reaching an alcohol concentration of 5%. The animals were continued to be fed with feed containing 5% alcohol. C57 mice were fed with Lieber-DeCarli feed for 12 weeks to establish a model of alcoholic liver injury.
30 C57 mice were subjected to adaptive feeding for 1 week, and then randomly divided into a normal diet group (n=6) and an alcohol diet group (n=24) according to body weight. In the alcohol diet group, a mouse alcoholic liver injury model was established by feeding mice with Lieber-DeCarli feed for 24 weeks according to the method of Example 3. After the modeling was completed, the mice were randomly divided into 4 groups, namely the non-intervention group (EtOH(6m)+Normal(1m), n=6), the zinc glutathione intervention group (EtOH(6m)+Zn(GSH)2(1m), n=6), the zinc intervention group (EtOH(6m)+Zn(1m), n=6), and the glutathione intervention group (EtOH(6m)+GSH(1m), n=6). The remaining normal diet group was named the normal group (Normal (7m) group, n=5).
Different intervention substances were added to the normal liquid feed for 1 month. The feed of the zinc glutathione intervention group was added with Zn(GSH)2SO4 at an amount of 1 mg Zn per 10 mL of feed (GSH was 9.35 mg/10 mL) for one month of intervention. The feed of the zinc intervention group was added with ZnSO4 at an amount of 1 mg Zn per 10 mL of feed. The feed of the glutathione intervention group was added with glutathione at an amount of 9.35 mg GSH per 10 mL of feed.
(§2) At the end of the experiment in each group, the animals were weighed, blood was collected, and materials were collected.
(§3) Blood collection: orbital blood collection was performed.
(§4) Liver: The animals were killed by cervical dislocation. The mice were cut along the midline of the abdomen to expose the abdomen and the liver was then peeled off. The intact liver was peeled off and separated into the different lobes.
(§5) Tissue distribution of each lobe of the liver: The left lobe was separated into three sections and the right lobe was separated into two sections. The first sections of the left lobe and right lobe were used to make pathological sections for histological examination. The second sections of the left lobe and right lobe were used for zinc measurement. The remaining third section of the left lobe was stored in liquid nitrogen for analysis such as molecular detection.
Biochemical analysis of serum: Alanine aminotransferase (ALT) in blood samples was analyzed using a colorimetric method.
Oil red O staining of frozen sections: Frozen sections were stained with ORO stain solution and the nuclei were counterstained with hematoxylin. […] The area of the ORO positive area was measured using Image Pro-Plus 6.0 software, and the ratio of the positive area to the total area was calculated.
(§6) Data processing and statistical analysis: All experimental data herein were analyzed using GraphPad Prime 6 statistical analysis software. Student t test was used for single factor analysis between two groups, and p<0.05 was considered to be statistically different.
Determination method: After blood was collected, the collected whole blood was placed at 25° C. for 30 minutes. After the blood coagulated, it was centrifuged at 3500 rpm for 15 minutes to separate the serum, and various parameters were measured timely. […]

[2] = test system: mouse alcoholic liver injury model; assay: Effect of product (a) on alcoholic liver injury (Example 4): Lieber-DeCarli alcohol diet, three months of intervention; type: in vivo, C57 mice
Text: as §1
30 C57 mice were subjected to adaptive feeding for 1 week, and then randomly divided into a normal diet group (n=9) and an alcohol diet group (n=21) according to body weight. In the alcohol diet group, a mouse alcoholic liver injury model was established by feeding mice with Lieber-DeCarli feed for 12 weeks according to the method of Example 3. After the modeling was completed, the mice were randomly divided into 3 groups, one of which was the pre-intervention group (EtOH (3m), n=3) (meanwhile, 4 animals were randomly selected from the normal diet group to be control of the pre-intervention group (Normal (3m) group, n=4). The pre-intervention group and the pre-intervention control group were collected immediately after the modeling was completed. The other two groups were the non-intervention group (EtOH (6m), n=10), and the zinc/glutathione intervention group (EtOH(6m)/Zn(GSH)2(3m), n=8) respectively. The remaining normal diet group was named the normal group (Normal (6m) group, n=5).
Zn(GSH)2·SO4 was added to the daily Lieber-DeCarli alcohol diet at the amount of 1 mg Zn/10 mL of feed for three months of invention.
as §2, §3
as §4, with “lobes. The left lobe was separated into three sections using a blade, and the right lobe was separated into two sections.” for “lobes.”
as §5, with “Other lobes were” for “The remaining third section of the left lobe was”, “detection. […]” for “detection.”
Measurement of zinc concentration: The zinc concentration in liver tissue was determined using atomic absorption spectrometry (atomic absorption spectrometer: ICE3500, Thermo Company).
as §6

[3] = EtOH(6 m)/Zn(GSH)2 group, end of experiment

Compound	ALT level relative to the zinc glutathione intervention group [1]	proportion of fat deposition in the total liver area (oil red O staining) [1]	ALT level in serum [1]	fat deposition (oil red O staining of liver) ([2]; EtOH(6m)/Zn(GSH)2(3m) vs non-intervention group, FIG. 9)	Liver weight [2, 3] [g]	Liver weight/final body weight [2, 3] [%]	Final body weight ([2]; EtOH(6 m)/Zn(GSH)2 group, end of experiment, average) [g]	survival rate ([2]; alcohol-fed mice, intervention after modeling, 1 mg Zn/10 mL feed, FIG. 8)	zinc content in the liver ([2]; atomic absorption spectrometry, intervention group, FIG. 12)	area of fat deposition (percentage of fat deposition in the total liver area) ([2]; oil red O staining, vs non-intervention group, FIG. 10)	vesicular steatosis (HE staining) ([2]; vs non-intervention group, FIG. 11)
N[C@@H](CCC(=O)N[C@@H](CS)C(=O)NCC(=O)O)C(=O)O [glutathione, N-(N-L-γ-glutamyl-L-cysteinyl)-glycine]	about 2 times	0.62	22.86								
O=S(=O)([O-])[O-].[Zn+2] [zinc, ZnSO4]	about 2 times	0.36	22.03								
[Zn^2+(L-GSH)2]·SO4^2− [Zn(GSH)2·SO4]		0.21	8.96	significantly improved	1.26 ± 0.25	5.62 ± 0.80	22.53 ± 1.67	significantly increased	significantly increased	significantly reduced	significantly reduced
